Source: US8357686B2, “Aryl-substituted polycyclic amines, method for the production thereof, and use thereof as a medicament” (Sanofi-Aventis Deutschland GmbH, priority 2004, dated 2013)

System: female NMRI mice
Test: Anorectic effect: cumulative condensed milk consumption in fasted mice
Type: in vivo
Conditions: oral dose 30 mg/kg by gavage after withdrawal of feed for 17 hours, condensed milk offered 30 minutes after administration, consumption determined for 7 hours, compared with vehicle-treated control animals
Experimental: The anorectic effect was tested on female NMRI mice. After withdrawal of feed for 17 hours, the test product was administered by gavage. The animals were housed singly with free access to drinking water and were offered condensed milk 30 minutes after administration of the product. The condensed milk consumption was determined every half hour for 7 hours, and the general wellbeing of the animals was observed. The measured milk consumption was compared with the vehicle-treated control animals.

Compound | Reduction in cumulative milk consumption as % of the control [%]
CCCCOc1ccc(C(=O)Nc2ccc(OC[C@@H]3CCCN4CCCC[C@H]34)cc2)cc1 [Example 2, 4-Butoxy-N-{4-[(1R,9aR)-1-(octahydroquinolizin-1-yl)methoxy]phenyl}-benzamide] | 73
O=C(Nc1ccc(OC[C@@H]2CCCN3CCCC[C@H]23)cc1)N1CCC(c2ccc(Cl)cc2)CC1 [Example 37] | 24
